Tests used:
[1] = for surface tension liquid-gas: Pendant drop shape; for mass density: Liquid, Vibrating tube method
[2] = xn = mol fraction of the nth substance listed; details: for surface tension liquid-gas: Pendant drop shape; for mass density: 101 kPa, Liquid, Vibrating tube method

COCCOC [1,2-dimethoxyethane]
[1]
Details	surface tension liquid-gas [mN/m]
298.15 K	24.27
303.15 K	23.73
308.15 K	23.16

mass density [kg/m3], [1]
Details	298.15 K	303.15 K	308.15 K
101 kPa	–	856.8	–
101.33 kPa	861.36	856.79	851.24

Cc1ccccc1C [1,2-dimethylbenzene]
[1]
Details	surface tension liquid-gas [mN/m]
298.15 K	29.86
303.15 K	29.18
308.15 K	28.61

[1], 101.33 kPa
Details	mass density [kg/m3]
298.15 K	875.09
303.15 K	870.86
308.15 K	866.64

Cc1ccc(C)cc1 [1,4-dimethylbenzene] + COCCOC
[2], x2 = 0
Details	mass density [kg/m3]	surface tension liquid-gas [mN/m]
298.15 K	856.95	28.11
303.15 K	852.61	27.59
308.15 K	848.27	27.07

Cc1ccc(C)cc1 [1,4-dimethylbenzene]
[1]
Details	surface tension liquid-gas [mN/m]
298.15 K	28.11
303.15 K	27.59
308.15 K	27.07

[1], 101.33 kPa
Details	mass density [kg/m3]
298.15 K	856.95
303.15 K	852.61
308.15 K	848.27

COCCOC [1,2-dimethoxyethane] + Cc1ccccc1C
[2]
Details	mass density [kg/m3]	surface tension liquid-gas [mN/m]
298.15 K, x1 = 0.0995	874.01	29.05
298.15 K, x1 = 0.1998	872.89	28.28
298.15 K, x1 = 0.3003	871.73	27.6
298.15 K, x1 = 0.4004	870.51	27.08
298.15 K, x1 = 0.4998	869.24	26.63
298.15 K, x1 = 0.6001	867.86	26.2
298.15 K, x1 = 0.7008	866.37	25.78
298.15 K, x1 = 0.7996	864.86	25.37
298.15 K, x1 = 0.8992	863.22	24.96
298.15 K, x1 = 0.95	862.34	24.64
298.15 K, x1 = 1	861.36	24.27
303.15 K, x1 = 0.0996	869.77	28.45
303.15 K, x1 = 0.1997	868.64	27.73
303.15 K, x1 = 0.3007	867.45	27.08
303.15 K, x1 = 0.3997	866.2	26.61
303.15 K, x1 = 0.5001	864.88	26.19
303.15 K, x1 = 0.6012	863.46	25.78
303.15 K, x1 = 0.7009	861.98	25.37
303.15 K, x1 = 0.7988	860.43	25
303.15 K, x1 = 0.8998	858.74	24.53
303.15 K, x1 = 0.9498	857.85	24.17
303.15 K, x1 = 1	856.8	23.73
308.15 K, x1 = 0.0998	865.45	27.92
308.15 K, x1 = 0.2005	864.2	27.23
308.15 K, x1 = 0.3003	862.9	26.61
308.15 K, x1 = 0.4009	861.51	26.17
308.15 K, x1 = 0.4991	860.07	25.77
308.15 K, x1 = 0.5995	858.53	25.39
308.15 K, x1 = 0.7013	856.88	24.99
308.15 K, x1 = 0.7991	855.2	24.58
308.15 K, x1 = 0.9008	853.35	24.07
308.15 K, x1 = 0.9503	852.39	23.66
308.15 K, x1 = 1	851.24	23.16

Cc1ccccc1C [1,2-dimethylbenzene] + COCCOC
[2], x2 = 0
Details	mass density [kg/m3]	surface tension liquid-gas [mN/m]
298.15 K	875.09	29.86
303.15 K	870.86	29.18
308.15 K	866.64	28.61

COCCOC [1,2-dimethoxyethane] + Cc1ccc(C)cc1
[2]
Details	mass density [kg/m3]	surface tension liquid-gas [mN/m]
298.15 K, x1 = 0.1002	857.45	27.63
298.15 K, x1 = 0.2004	857.95	27.17
298.15 K, x1 = 0.2996	858.44	26.75
298.15 K, x1 = 0.4001	858.93	26.32
298.15 K, x1 = 0.5009	859.41	25.91
298.15 K, x1 = 0.5997	859.85	25.54
298.15 K, x1 = 0.7018	860.28	25.18
298.15 K, x1 = 0.8005	860.66	24.87
298.15 K, x1 = 0.8998	861.02	24.57
298.15 K, x1 = 1	861.36	24.27
303.15 K, x1 = 0.0999	853.1	27.12
303.15 K, x1 = 0.2007	853.58	26.67
303.15 K, x1 = 0.3002	854.06	26.24
303.15 K, x1 = 0.3999	854.52	25.82
303.15 K, x1 = 0.4999	854.97	25.41
303.15 K, x1 = 0.6001	855.4	25.03
303.15 K, x1 = 0.7011	855.81	24.68
303.15 K, x1 = 0.8003	856.19	24.37
303.15 K, x1 = 0.9003	856.52	24.05
303.15 K, x1 = 1	856.79	23.73
308.15 K, x1 = 0.0996	848.66	26.61
308.15 K, x1 = 0.1998	849.05	26.16
308.15 K, x1 = 0.2997	849.41	25.73
308.15 K, x1 = 0.4001	849.76	25.3
308.15 K, x1 = 0.4995	850.09	24.89
308.15 K, x1 = 0.6004	850.4	24.51
308.15 K, x1 = 0.6993	850.67	24.17
308.15 K, x1 = 0.7993	850.93	23.84
308.15 K, x1 = 0.8998	851.14	23.5
308.15 K, x1 = 1	851.24	23.16

Reference: the NIST ThermoML archive (doi:10.1016/j.jct.2009.04.001)
